Literature values in patent US6803057B2, “Hydrogen peroxide disinfectant with increased activity” (Virox Technologies Inc., priority 1998, dated 2004).
Read-outs that look alike come from different tables or passages of the source.

Experiments:
[1] = test system: Salmonella typhimurium and Listeria monocytogenes

CCCCCCCCCCCCc1ccc(S(=O)(=O)O)cc1 [DDBSA, dodecyl benzene sulfonic acid]
concentration effective in sanitizing [1]: ≥ 200 ppm

OO [hydrogen peroxide]
corrosivity / irritancy (1-3 wt./wt. % aqueous solution): non-corrosive and non-irritating | corrosivity / irritancy (3-7 wt./wt. % aqueous solution): non-corrosive but an eye irritant | corrosivity / irritancy (above about 8 wt./wt. % aqueous solution): corrosive | time required to disinfect surfaces contaminated with staphylococcus aureus (staphylococcus aureus; 0.1 wt./wt. % aqueous solution): 60 min | time required to disinfect surfaces contaminated with staphylococcus aureus (staphylococcus aureus; 25.8 wt./wt. % aqueous solution): 0.333 min
